Laboratory results: patent publication US20230165979A1, “COPPER-CONTAINING THERAGNOSTIC COMPOSITIONS AND METHODS OF USE” (Cornell University, priority 2020, published 2023)

Columns and labels:
LNCaP tumors [1] = test: Published biodistribution of 177Lu-labeled comparison ligands in the same animal model; type: in vivo, mice; conditions: over 96 h p.i.; from previously determined values
Description: When tumor size reached approximately 200 mm^3, mice (n=4/time point) were administered 3.8±0.1 MBq [^64Cu]Cu-RPS-085 or 0.8±0.005 MBq [^67Cu]Cu-RPS-085 by intravenous injection. The total mass dose received by each animal was approximately 50 ng (31 pmol) and approximately 28 ng (17 pmol) for the [^64Cu]Cu-RPS-085 and [^67Cu]Cu-RPS-085 studies, respectively. The mice were sacrificed at 4 h, 24 h, or 48 h p.i. ([^64Cu]Cu-RPS-085) or 4 h, 24 h, and 96 h ([^67Cu]Cu-RPS-085). A blood sample was collected, and the following tissues were collected and weighed wet using a digital balance: heart, lungs, liver, stomach, small intestine, large intestine, spleen, pancreas, kidneys, muscle, bone, and tumor. The tissues were counted on a Wizard2 Automatic Gamma Counter (Perkin Elmer, USA) against a 1% injected dose standard. The counts were corrected for decay and for activity injected, and tissue uptake was expressed as percent injected dose per gram (% ID/g). Standard error of the mean (SEM) was calculated for each data point. Statistical analyses were performed using an unpaired t test with GraphPad Prism software. A P value of less than 0.05 was considered significant. […] Published values for [177Lu]Lu-RPS-063 are shown for comparison; all concentrations are expressed as percent injected dose per organ.

LNCaP tumors [2] = conditions: over 96 h p.i.; same animal model; previously determined; cited from earlier work

[^177Lu]Lu-PSMA-617
Ãtumor/Ãkidney ratio (LNCaP tumors [1]): 2.1
accumulated activity (Ã) in LNCaP tumors (LNCaP tumors [2]): 544 (% ID/g)·h
accumulated activity (Ã) in kidneys (LNCaP tumors [2]): 260 (% ID/g)·h
